The values below come from paper PMC9610647, “Acetylcholinesterase Inhibitory Activities of Essential Oils from Vietnamese Traditional Medicinal Plants” (Molecules, 2022).

One assay concerns the target T1, electric eel AChE (Electrophorus electricus, UniProt O42275).
T1 construct: purchased Sigma-Aldrich
As to the kind of experiment: Acetylcholinesterase (AChE) inhibition assay, Ellman method. The conditions noted are these: for inhibition at 4 µg/mL: read-out: Acetylcholinesterase inhibitory activity at 4 µg/mL; for inhibition at 20 µg/mL: read-out: Acetylcholinesterase inhibitory activity at 20 µg/mL; for inhibition at 100 µg/mL: read-out: Acetylcholinesterase inhibitory activity at 100 µg/mL; for inhibition at 500 µg/mL: read-out: Acetylcholinesterase inhibitory activity at 500 µg/mL. The assay is classed as biochemical. As to the method: Acetylcholinesterase (AChE) inhibitory activity of essential oil was determined according to the method described by Ellman and our previous study. The stock solution was obtained by dissolving the essential oil in DMSO (Merck), which was then diluted with H2O (deionized distilled water) to obtain different experimental concentrations. Each solution mixture consisted of 140 μL of phosphate buffer solution (pH: 8), 20 μL of essential oil at concentrations of 500, 100, 20, and 4 μg/mL, and 20 μL of the enzyme AChE (0.25 IU/mL, Sigma-Aldrich, St. Louis, MO, USA). The reaction mixtures were transferred to the test wells of a 96-well microtiter plate and incubated at 25 °C for 15 min. Then, solutions of 10 μL dithiobisnitrobenzoic acid (DTNB, 2.5 mM, Sigma-Aldrich) and 10 μL acetylthiocholine iodide (ACTI, 2.5 mM, Sigma-Aldrich) were added to each of the test wells and incubation continued for 10 min at 25 °C. […] Each test was carried out in triplicate.
In general terms: DTNB colorimetry detects thiols as they appear.

The subject of a further assay is AChE. The conditions noted are these: cited from earlier work.
For assay [1], the system named is AChE from human erythrocytes. To be noted: cited from earlier work.
Assay [2] concerns AChE from Electrophorus electricus (electric eel). The conditions noted are these: cited from earlier work.
For assay [3], the system named is AChE of bovine erythrocytes. To be noted: cited from earlier work.
[4] abbreviates: IC50 (μM), IC50 ± standard deviation.
Setting [5] is: IC50, IC50 ± standard deviation.

T1 sequence (O42275 24-633): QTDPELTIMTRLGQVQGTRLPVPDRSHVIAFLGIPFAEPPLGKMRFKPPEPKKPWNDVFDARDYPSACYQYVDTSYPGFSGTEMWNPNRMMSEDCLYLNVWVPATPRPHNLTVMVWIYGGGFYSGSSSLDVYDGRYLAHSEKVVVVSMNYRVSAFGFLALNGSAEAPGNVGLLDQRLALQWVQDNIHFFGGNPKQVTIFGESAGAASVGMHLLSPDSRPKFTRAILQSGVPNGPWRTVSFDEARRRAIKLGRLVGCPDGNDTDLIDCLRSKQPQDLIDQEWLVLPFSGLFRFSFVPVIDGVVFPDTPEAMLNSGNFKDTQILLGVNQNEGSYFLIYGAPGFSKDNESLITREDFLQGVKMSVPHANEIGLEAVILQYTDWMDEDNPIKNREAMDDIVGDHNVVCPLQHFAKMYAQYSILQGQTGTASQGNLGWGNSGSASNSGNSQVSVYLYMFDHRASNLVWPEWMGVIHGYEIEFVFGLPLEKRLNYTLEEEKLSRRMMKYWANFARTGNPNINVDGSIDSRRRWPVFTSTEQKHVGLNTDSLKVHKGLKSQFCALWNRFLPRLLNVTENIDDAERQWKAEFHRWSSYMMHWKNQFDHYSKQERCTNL

With `C=C(C)C1CC=C(C)C(O)C1` (stereo not drawn) [trans-Carveol], inhibition on electric eel AChE (setting [4]) was half-maximal at 676 µM (IC50). Moreover, at electric eel AChE (setting [5]), it took 676 µM to reach half-maximal inhibition (IC50). Besides, at electric eel AChE, the inhibition at 4 µg/mL is 1.19%, the inhibition at 20 µg/mL amounted to 16.8%, the inhibition at 100 µg/mL is 55.3% and the inhibition at 500 µg/mL worked out at 76.9%.
For the molecule `CC1=CC=C(C(C)C)CC1` [α-terpinene], the IC50 (in general, the point on the concentration scale where inhibition reaches its midpoint) in the assay on AChE is 1000 µM.
Turning to `C=C1CCC=C(C)CCC2C1CC2(C)C` (stereo not drawn) [(E)-β-Caryophyllene], the IC50 in assay [1] is 147 ± 15 µM. In addition, in assay [2] (concentration 0.06 mM), the “inhibition of AChE” value is listed as 32%. This molecule registered a concentration for half-maximal inhibition (IC50) on electric eel AChE (setting [4]) of 436 ± 29.9 µM. This molecule showed a concentration for half-maximal inhibition (IC50) on electric eel AChE (setting [5]) of 436 µM. On electric eel AChE, the inhibition at 4 µg/mL came out at 6.09%, the inhibition at 20 µg/mL was found to be 26.3%, the inhibition at 100 µg/mL turned out to be 52.9% and the inhibition at 500 µg/mL was 79%.
As to `C=C1CCC2(C(C)C)CC12` (stereo not drawn) [Sabinene], the IC50 in the assay on AChE was 1300 ± 21 µM.
Turning to `CC1=CCC2CC1C2(C)C` (stereo not drawn) [α-Pinene, reference compound], in assay [3], the IC50 is 660 ± 40 µM.
Consider `C=C1CC[C@H]2O[C@]2(C)CC[C@@H]2[C@@H]1CC2(C)C` [Caryophyllene Oxide], for which the AChE inhibition in assay [3] (250 µg/mL) is given as 35 ± 4.7%. The AChE inhibition in assay [2] (200 µg/mL) is 41.46 ± 2.66%. The molecule further displayed an IC50 on electric eel AChE (setting [4]) of 1450 ± 61 µM. The molecule also showed an IC50 against electric eel AChE (setting [5]) of 1450 µM. Also, at electric eel AChE, the inhibition at 4 µg/mL is -2.11%, the inhibition at 20 µg/mL came out at 0.49%, the inhibition at 100 µg/mL stood at 16.9% and the inhibition at 500 µg/mL came out at 74%.
Regarding `CC1=CC[C@@H](C(C)(C)O)CC1` [α-terpineol], the IC50 in the assay on AChE is 8400 ± 400 µM.
For `C=C1CCC2CC1C2(C)C` (stereo not drawn) [β-Pinene], the IC50 in assay [3] is about 1500 µM. Besides, at electric eel AChE (setting [4]), it took 525 ± 42.4 µM to reach half-maximal inhibition (IC50). Further, the IC50 on electric eel AChE (setting [5]) was 524 µM. Besides, on electric eel AChE, the inhibition at 4 µg/mL came out at 20.9%, the inhibition at 20 µg/mL came out at 28.9%, the inhibition at 100 µg/mL was found to be 58.9% and the inhibition at 500 µg/mL came to 86.5%.
As to `CC12CCC(CC1)C(C)(C)O2` [1,8-Cineole, reference compound], the IC50 in assay [3] is 390 ± 60 µM; in assay [2], 6 µM.
With `CC1(C)C2CC=C(C=O)C1C2` (stereo not drawn) [Myrtenal], in the assay on AChE, the IC50 is 170 µM.
Take `CC1=CCCC(C)=CCC(C)(C)C=CC1` [α-Humulene]: at electric eel AChE (setting [4]), the IC50 was 785 ± 66 µM. Moreover, at electric eel AChE (setting [5]), the IC50 is 785 µM. In addition, on electric eel AChE, the inhibition at 4 µg/mL came out at 19.4%, the inhibition at 20 µg/mL came to 25.1%, the inhibition at 100 µg/mL amounted to 44.3% and the inhibition at 500 µg/mL amounted to 72.8%.
Take `C=C(C)C1CC=C(C)CC1` (stereo not drawn) [Limonene]: inhibition at electric eel AChE (setting [4]) was half-maximal at 390 ± 30 µM (IC50). On electric eel AChE (setting [5]), this molecule gave an IC50 of 390 µM. Moreover, at electric eel AChE, the inhibition at 4 µg/mL stood at 18.2%, the inhibition at 20 µg/mL stood at 27%, the inhibition at 100 µg/mL worked out at 67.7% and the inhibition at 500 µg/mL turned out to be 90.8%.
